The results in this text go back to US11365199B2, “Pyrazole compounds as modulators of FSHR and uses thereof” (Merck Patent GmbH, priority 2013, dated 2022).

The assay concerns the target T1, FSHR (Homo sapiens, UniProt P23945).
T1 construct: expressed in transfected cells; host or cells: CHO (Cho-FSHR-LUC-1-1-43)
T1 sequence (P23945 18-695): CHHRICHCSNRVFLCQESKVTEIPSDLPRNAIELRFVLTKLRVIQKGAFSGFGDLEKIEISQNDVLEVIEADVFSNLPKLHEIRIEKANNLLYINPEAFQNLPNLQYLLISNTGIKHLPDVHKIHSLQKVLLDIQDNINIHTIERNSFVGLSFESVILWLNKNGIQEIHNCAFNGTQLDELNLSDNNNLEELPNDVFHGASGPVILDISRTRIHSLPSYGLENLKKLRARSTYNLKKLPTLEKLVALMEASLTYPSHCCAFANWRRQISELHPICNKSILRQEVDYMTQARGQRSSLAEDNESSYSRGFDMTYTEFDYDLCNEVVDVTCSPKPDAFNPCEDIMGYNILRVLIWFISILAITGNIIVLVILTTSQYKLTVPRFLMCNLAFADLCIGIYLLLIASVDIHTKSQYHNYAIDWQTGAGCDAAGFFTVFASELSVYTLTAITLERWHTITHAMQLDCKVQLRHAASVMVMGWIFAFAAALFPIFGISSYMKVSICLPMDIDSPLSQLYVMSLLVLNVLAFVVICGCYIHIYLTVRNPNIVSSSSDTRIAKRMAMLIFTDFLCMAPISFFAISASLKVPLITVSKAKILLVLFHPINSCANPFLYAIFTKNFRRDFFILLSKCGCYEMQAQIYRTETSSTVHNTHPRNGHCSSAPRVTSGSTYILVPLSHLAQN
The assay is described as follows: EC50 of cyclic AMP production in CHO FSHR cells + EC20 FSH (Assay A). It counts as cell-based. The note with it: CHO FSHR cells + EC20 FSH, cAMP HTRF; read-out: Assay A: EC50 of cyclic AMP production. As to the method: EC50 of Cyclic AMP Production in CHO FSHR Cells+EC20 FSH (Assay A)
2500 Cho-FSHR-LUC-1-1-43 cells were plated per well in 5 μl of phenol red free DMEM/F12+1% FBS. Cells were plated in 384 well, solid white low volume plates (Greiner 784075) by Multidrop. Cells were assayed by adding 100 μl of 2×EC20 FSH/IBMX in DMEM/F12+0.1% BSA) by Multidrop to 2 μl of test compound stamped in 384 well plates (compounds are diluted 1:50). The final FSH concentration was […], and the final IBMX concentration was 200 μM. The compound plate map was as follows: Column 1: 2 μl of DMSO; Column 2: 2 μl of DMSO; Columns 3-12 and 13-24: 2 μl of test compound, diluted 1:4 in 100% DMSO, or 2 μl of FSH, diluted 1:4 in DMEM/F12+0.1% BSA. The starting concentration for FSH was 50 nM (final concentration was 0.5 nM). Furthermore, Column 23 contained 2 μl of EC100 FSH reference (100×) (diluted in DMEM/F12+0.1% BSA) at a final concentration of 0.5 nM, and Column 24 contained 2 μl of 1 mM AS707664/2 reference compound 2. 5 μl of compound+EC20 FSH mixture were transferred to cell plates (1:2 dilution into 5 μl of cell media) The plates were incubated at 37° C. for 1 h. 10 μl of mixed HTRF (CisBio #62AM4PEC) reagents were added per well and incubated at room temperature for 1 h. The plates were read on Envision using the cAMP HTRF—low volume 384 well protocol. The readout was the calculated fluorescence ratio (665 nm/620 nm). Values given in percent (%) indicate the percental effect (response) at a certain concentration of agonist relative to the maximum response of the FSH standard.
A general note: TR-FRET usually uses a lanthanide donor and a delayed reading to cut background.
For the compound `COc1cc2c(cc1-c1ccn(C)c1)-c1c(c(C(=O)O[C@H]3CC[C@H](N)C3)nn1-c1ccsc1)CO2` [Compound 181, 7-Methoxy-8-(1-methyl-1H-pyrrol-3-yl)-1-thiophen-3-yl-1,4-dihydro-chromeno[4,3-c]pyrazole-3-carboxylic Acid (1S,3S)-3-amino-cyclopentyl Ester], the EC50 – broadly, the concentration giving half of the maximal effect – is under 100 nM.
As for `COc1cc2c(cc1-c1ccn(C)n1)-c1c(c(C(=O)N(C)CC3(C)COC3)nn1-c1ccsc1)CO2` [Compound 102, 7-Methoxy-8-(1-methyl-1H-pyrazol-3-yl)-1-thiophen-3-yl-1,4-dihydro-chromeno[4,3-c]pyrazole-3-carboxylic acid methyl-(3-methyl-oxetan-3-ylmethyl)-amide], the EC50 was in the range of 100 to 1000 nM.
Turning to `COc1cc2c(cc1C=C(C)C)-c1c(c(C(=O)N3CCCC(C(N)=O)CC3)nn1-c1ccsc1)CO2` (stereo not drawn) [Compound 43, 1-[7-methoxy-8-(2-methyl-propenyl)-1-thiophen-3-yl-1,4-dihydro-chromeno[4,3-c]pyrazole-3-carbonyl]-azepane-4-carboxylic Acid Amide], the EC50 is under 100 nM.
For the compound `COc1cc2c(cc1S(=O)(=O)C(C)C)-c1c(c(C(=O)NC3(C)COC3)nn1-c1ccsc1)CO2` [Compound 188, 7-Methoxy-8-(propane-2-sulfonyl)-1-thiophen-3-yl-1,4-dihydro-chromeno[4,3-c]pyrazole-3-carboxylic Acid (3-methyl-oxetan-3-yl)-amide], the EC50 was over 5000 nM.
As for `COc1cc2c(cc1C#N)-c1c(c(C(=O)N3CCOCC3(C)C)nn1-c1ccsc1)CO2` [Compound 86, 3-(3,3-Dimethyl-morpholine-4-carbonyl)-7-methoxy-1-thiophen-3-yl-1,4-dihydro-chromeno[4,3-c]pyrazole-8-carbonitrile], the figure is under 100 nM.
`COc1cc2c(cc1-c1cnc(C)n1C)-c1c(c(C(=O)N(C)C(C)(C)C)nn1-c1ccsc1)CO2` [Compound 92, 8-(2,3-Dimethyl-3H-imidazol-4-yl)-7-methoxy-1-thiophen-3-yl-1,4-dihydro-chromeno[4,3-c]pyrazole-3-carboxylic acid tert-butyl-methyl-amide]: the EC50 was under 100 nM.
As for `COc1cc2c(cc1-c1c(C)noc1C)-c1c(c(C(=O)N(C)C(C)(C)C)nn1-c1ccsc1)CO2` [Compound 67, 8-(3,5-Dimethyl-isoxazol-4-yl)-7-methoxy-1-thiophen-3-yl-1,4-dihydro-chromeno[4,3-c]pyrazole-3-carboxylic acid tert-butyl-methyl-amide], the figure is under 100 nM; as for `[2H]C([2H])([2H])O[C@H]1CC[C@H](N(C(=O)c2nn(-c3ccsc3)c3c2COc2cc(OC)c(-c4ccn(C)n4)cc2-3)C([2H])([2H])[2H])C1` [Compound 196], over 5000 nM.
As for `COc1cc2c(cc1C=C(C)C)-c1c(c(C(=O)N(C)CCCN3CCOC3=O)nn1-c1ccsc1)CO2` [Compound 33], the figure is 100 to 1000 nM.
For `COc1cc2c(cc1C=C(C)C)-c1c(c(C(=O)N(C)C(C)(C)CO)nn1-c1ccsc1)CO2` [Compound 40, 7-Methoxy-8-(2-methyl-propenyl)-1-thiophen-3-yl-1,4-dihydro-chromeno[4,3-c]pyrazole-3-carboxylic acid (2-hydroxy-1,1-dimethyl-ethyl)-methyl-amide] the value was under 100 nM; for `C=CCn1cc(-c2cc3c(cc2OC)OCc2c(C(=O)N4CCOCC4(C)C)nn(-c4ccsc4)c2-3)cn1` [Compound 207, [8-(1-Allyl-1H-pyrazol-4-yl)-7-methoxy-1-thiophen-3-yl-1,4-dihydro-chromeno[4,3-c]pyrazol-3-yl]-(3,3-dimethyl-morpholin-4-yl)-methanone], under 100 nM; for `COc1cc2c(cc1-c1cnn(CC(C)C)c1)-c1c(c(C(=O)N3CCOCC3(C)C)nn1-c1ccsc1)CO2` [Compound 192, (3,3-Dimethyl-morpholin-4-yl)-[8-(1-isobutyl-1H-pyrazol-4-yl)-7-methoxy-1-thiophen-3-yl-1,4-dihydro-chromeno[4,3-c]pyrazol-3-yl]-methanone], under 100 nM.
